12 compounds from publication PMC12396409, “Screening and hit evaluation of a microbial metabolite library against the pathogenic Plasmodium falciparum and Toxoplasma gondii parasites” (International Journal for Parasitology: Drugs and Drug …, 2025) can be followed below.

The subject of test [1] is P. falciparum 3D7 parasites. Briefly: P. falciparum growth inhibition assay, 1-cycle (72 h treatment), SYBR DNA staining (library screen at 2 μg/mL and dose-response). The note with it: P. falciparum, 72 h; for Pf_72h_%Growth_Rep1 / Pf_72h_%Growth_Rep2 / activity at 2 µg/mL: screen at 2 μg/mL; for activity at 2 µg/mL: Plasmodium falciparum. Format: cell-based, Plasmodium falciparum.

The test system of test [2] is T. gondii RH strain (RH-Tub-eYFP) tachyzoites. Briefly: microbe, parasite or virus in culture. Format: cell-based, Toxoplasma gondii. Conditions: T. gondii, 72 h, screen at 2 μg/mL; for percent parasite growth at 2 µg/mL: Toxoplasma gondii.
Test [3] relates to P. falciparum 3D7 parasites. As to the kind of experiment: P. falciparum growth inhibition assay, 2-cycle (120 h treatment), delayed-death screen and dose-response. Conditions: P. falciparum; for Pf_120h_%Growth_Rep1 / Pf_120h_%Growth_Rep2 / activity at 2 µg/mL: screen at 2 μg/mL; for activity at 2 µg/mL: Plasmodium falciparum. In kind it is cell-based, Plasmodium falciparum.
Setting [4] is: 3D7, 72 h, replicate 1, read-out: Pf_72h_%Growth_Rep1.
[5] abbreviates: 3D7, 72 h, replicate 2, read-out: Pf_72h_%Growth_Rep2.
Where [6] appears, read: replicate 1, read-out: Tg_72h_%Growth_Rep1.
Where [7] appears, read: replicate 2, read-out: Tg_72h_%Growth_Rep2.
[8] abbreviates: 3D7, 120 h, 120 h, replicate 1, read-out: Pf_120h_%Growth_Rep1.
The mark [9] stands for this setting: 3D7, 120 h, 120 h, replicate 2, read-out: Pf_120h_%Growth_Rep2.
Where [10] appears, read: 3D7, replicate 1, read-out: Pf_72h_%Growth_Rep1.
Setting [11] is: 3D7, replicate 2, read-out: Pf_72h_%Growth_Rep2.
Where [12] appears, read: 3D7, 120 h, replicate 1, read-out: Pf_120h_%Growth_Rep1.
[13] abbreviates: 3D7, 120 h, replicate 2, read-out: Pf_120h_%Growth_Rep2.

Like-named read-outs stand apart in the source and are kept apart here.

Compound `C/C=C/C[C@@H](C)[C@@H](O)[C@H]1C(=O)N[C@@H]([C@@H](C)O)C(=O)N(C)CC(=O)N(C)[C@@H](CC(C)C)C(=O)N[C@@H](C(C)C)C(=O)N(C)[C@@H](CC(C)C)C(=O)N[C@@H](C)C(=O)N[C@H](C)C(=O)N(C)[C@@H](CC(C)C)C(=O)N(C)[C@@H](CC(C)C)C(=O)N(C)[C@@H](C(C)C)C(=O)N1C` [Cyclosporin C] yielded a Pf_72h_%Growth_Rep1 in test [1] (replicate 1) of 11.25%. This compound also displayed a Pf_72h_%Growth_Rep2 in test [1] (replicate 2) of 0.59%. In test [2] (replicate 1), this compound registered a Tg_72h_%Growth_Rep1 of 44.04%. For the same compound, the Tg_72h_%Growth_Rep2 in test [2] (replicate 2) is recorded as 47.65%. The Pf_120h_%Growth_Rep1 in test [3] (120 h, replicate 1) was 31.80%. In test [3] (120 h, replicate 2), the Pf_120h_%Growth_Rep2 stood at 7.29%.

In test [1] (replicate 1), `C/C=C/C[C@@H](C)[C@@H](O)[C@H]1C(=O)N[C@@H](C(C)C)C(=O)N(C)CC(=O)N(C)[C@@H](CC(C)C)C(=O)N[C@@H](C(C)C)C(=O)N(C)[C@@H](CC(C)C)C(=O)N[C@@H](C)C(=O)N[C@H](C)C(=O)N(C)[C@@H](CC(C)C)C(=O)N(C)[C@@H](CC(C)C)C(=O)N(C)[C@@H](C(C)C)C(=O)N1C` [Cyclosporin D] displayed a Pf_72h_%Growth_Rep1 of 1.31%. Also, in test [1] (replicate 2), the Pf_72h_%Growth_Rep2 was 3.21%. In test [2] (replicate 1), this compound showed a Tg_72h_%Growth_Rep1 of 61.91%. The compound further registered a Tg_72h_%Growth_Rep2 in test [2] (replicate 2) of 54.60%. In test [3] (120 h, replicate 1), the Pf_120h_%Growth_Rep1 was -2.52%. Besides, the Pf_120h_%Growth_Rep2 in test [3] (120 h, replicate 2) is given as -5.39%.

`C/C=C/C[C@@H](C)[C@@H](O)[C@H]1C(=O)N[C@@H](CC)C(=O)N(C)CC(=O)N(C)[C@@H](CC(C)C)C(=O)N[C@@H](C(C)C)C(=O)N(C)[C@@H](CC(C)C)C(=O)N[C@@H](C)C(=O)N[C@H](C)C(=O)N(C)[C@@H](CC(C)C)C(=O)N(C)[C@@H](CC(C)C)C(=O)N(C)[C@H](C(C)C)C(=O)N1C` [Cyclosporin H] yielded a Pf_72h_%Growth_Rep1 in test [1] (replicate 1) of 6.54%. Further, in test [1] (replicate 2), the Pf_72h_%Growth_Rep2 stood at 2.27%. The same compound showed a Tg_72h_%Growth_Rep1 in test [2] (replicate 1) of 148.50%. For the same compound, the Pf_120h_%Growth_Rep1 in test [3] (120 h, replicate 1) amounted to 5.94%. Further, the Pf_120h_%Growth_Rep2 in test [3] (120 h, replicate 2) is listed as 7.89%.

Take `C=C1[C@@H](C)[C@H]2[C@H](Cc3ccccc3)NC(=O)[C@]23OC(=O)/C=C/C(=O)CCC[C@@H](C)C/C=C/[C@H]3[C@@H]1O` [Cytochalasin A]: in test [1] (replicate 1), the Pf_72h_%Growth_Rep1 is on record as 14.20%. Moreover, in test [1] (replicate 2), the Pf_72h_%Growth_Rep2 is 12.98%. Further, in test [2] (replicate 1), the Tg_72h_%Growth_Rep1 is 2.84%. Besides, in test [2] (replicate 2), the Tg_72h_%Growth_Rep2 is given as 2.30%. For the same compound, the Pf_120h_%Growth_Rep1 in test [3] (120 h, replicate 1) is reported as 0.48%. For the same compound, the Pf_120h_%Growth_Rep2 in test [3] (120 h, replicate 2) is given as 6.78%.

Regarding `C=C1[C@@H](C)[C@H]2[C@H](Cc3ccccc3)NC(=O)[C@]23OC(=O)/C=C/[C@H](O)CCC[C@@H](C)C/C=C/[C@H]3[C@@H]1O` [Cytochalasin B], the activity at 2 µg/mL in test [1] (setting [4]) was 8.23%; in test [1] (setting [5]), 10.3%; in test [3] (setting [8]), -1.09%; in test [3] (setting [9]), 8.72%. Also, the percent parasite growth at 2 µg/mL in test [2] (setting [6]) worked out at 31.3%; in test [2] (setting [7]), 60.5%.

`C=C1[C@@H](C)[C@H]2[C@H](Cc3ccccc3)NC(=O)[C@]23[C@H](OC(C)=O)/C=C/[C@@](C)(O)C(=O)[C@@H](C)C/C=C/[C@H]3[C@@H]1O` [Cytochalasin D]: the activity at 2 µg/mL in test [1] (setting [4]) was 6.33%; in test [1] (setting [5]), 2.44%; in test [3] (setting [8]), 3.12%; in test [3] (setting [9]) it was 4.41%. Moreover, the values for the percent parasite growth at 2 µg/mL in test [2] (setting [6]) and in test [2] (setting [7]) were 2.17% and 2.65%, respectively.

In the case of `C[C@H]1C/C=C/[C@H]2[C@@H]3O[C@]3(C)[C@@H](C)[C@H]3[C@H](Cc4ccccc4)NC(=O)[C@]32OC(=O)O/C=C/[C@@](C)(O)C1=O` [Cytochalasin E], the activity at 2 µg/mL was found to be 64% in test [1] (setting [4]), 54.5% in test [1] (setting [5]), 53.6% in test [3] (setting [8]) and 53.8% in test [3] (setting [9]). Further, the values for the percent parasite growth at 2 µg/mL in test [2] (setting [6]) and in test [2] (setting [7]) were 89.3% and 102%, respectively.

Turning to `C=C1[C@@H](C)[C@H]2[C@H](Cc3ccccc3)NC(=O)[C@]23[C@H](OC(C)=O)/C=C/[C@](C)(O)C[C@@H](C)C/C=C/[C@H]3[C@@H]1O` [Cytochalasin H], the Pf_72h_%Growth_Rep1 in test [1] (replicate 1) is reported as 6.96%. In test [1] (replicate 2), this compound showed a Pf_72h_%Growth_Rep2 of 6.37%. In addition, the Tg_72h_%Growth_Rep1 in test [2] (replicate 1) is listed as 1.51%. This compound came in with a Tg_72h_%Growth_Rep2 in test [2] (replicate 2) of 2.70%. Also, the Pf_120h_%Growth_Rep1 in test [3] (120 h, replicate 1) was 1.94%. For the same compound, in test [3] (120 h, replicate 2), the Pf_120h_%Growth_Rep2 is on record as -0.33%.

Turning to `O=c1c(-c2ccc(O)cc2)coc2cc(O)ccc12` [Daidzein], the activity at 2 µg/mL was found to be 83.8% in test [1] (setting [10]), 88.8% in test [1] (setting [11]), 103% in test [3] (setting [12]) and 95.5% in test [3] (setting [13]). In addition, the percent parasite growth at 2 µg/mL was 125% in test [2] (setting [6]) and 97% in test [2] (setting [7]).

`CN[C@H]1C(=O)N[C@@H]2Cc3ccc(cc3)Oc3cc4cc(c3O[C@@H]3O[C@H](C(=O)O)[C@@H](O)[C@H](O)[C@H]3NC(=O)CCCCCCCCC(C)C)Oc3ccc(cc3Cl)[C@@H](O)[C@@H]3NC(=O)[C@H](NC(=O)[C@@H]4NC(=O)[C@@H](NC2=O)c2cc(cc(O)c2Cl)Oc2cc1ccc2O)c1ccc(O)c(c1)-c1c(O[C@H]2O[C@H](CO)[C@@H](O)[C@H](O)[C@@H]2O)cc(O)cc1[C@@H](C(=O)NCCCN(C)C)NC3=O` [Dalbavancin] gave a Pf_72h_%Growth_Rep1 in test [1] (replicate 1) of 84.83%. In test [1] (replicate 2), this compound displayed a Pf_72h_%Growth_Rep2 of 84.70%. The same compound showed a Tg_72h_%Growth_Rep1 in test [2] (replicate 1) of 148.88%. The compound also came in with a Tg_72h_%Growth_Rep2 in test [2] (replicate 2) of 101.28%. In addition, the Pf_120h_%Growth_Rep1 in test [3] (120 h, replicate 1) stood at 61.95%. In test [3] (120 h, replicate 2), the Pf_120h_%Growth_Rep2 stood at 91.53%.

With `CCN(CC)CCS(=O)(=O)[C@@H]1CCN2C(=O)c3coc(n3)CC(=O)C[C@H](O)/C=C(C)/C=C/CNC(=O)/C=C/[C@@H](C)[C@@H](C(C)C)OC(=O)[C@@H]12.CS(=O)(=O)O` [Dalfopristin mesylate, reference compound], the “1) Growth (%) at 72 h” value in test [1] (2 μg/mL) amounted to 45.58%. Further, the Pf_72h_%Growth_Rep1 in test [1] (replicate 1) is recorded as 55.22%. The same compound had a Pf_72h_%Growth_Rep2 in test [1] (replicate 2) of 35.94%. Further, in test [2] (replicate 1), the Tg_72h_%Growth_Rep1 worked out at 40.17%. The compound also yielded a Tg_72h_%Growth_Rep2 in test [2] (replicate 2) of 68.18%. The “2) Growth (%) at 120 h” value in test [3] (2 μg/mL, 120 h) is reported as 5.60%. Also, the Pf_120h_%Growth_Rep1 in test [3] (120 h, replicate 1) was 1.37%. The Pf_120h_%Growth_Rep2 in test [3] (120 h, replicate 2) was 9.82%. For the same compound, the “3) Fold change (72 h/120 h)” value in test [3] (growth at 72 h / growth at 120 h, 2 μg/mL) turned out to be 8.1.

With `CCCCCCCCCC(=O)N[C@@H](Cc1c[nH]c2ccccc12)C(=O)N[C@H](CC(N)=O)C(=O)N[C@@H](CC(=O)O)C(=O)N[C@@H]1C(=O)NCC(=O)N[C@@H](CCCN)C(=O)N[C@@H](CC(=O)O)C(=O)N[C@H](C)C(=O)N[C@@H](CC(=O)O)C(=O)NCC(=O)N[C@H](CO)C(=O)N[C@@H]([C@H](C)CC(=O)O)C(=O)N[C@@H](CC(=O)c2ccccc2N)C(=O)O[C@@H]1C` [Daptomycin], the activity at 2 µg/mL in test [1] (setting [10]) worked out at 88.5%; in test [1] (setting [11]), 114%; in test [3] (setting [12]) it was 90.7%; in test [3] (setting [13]) it was 116%. The results for the percent parasite growth at 2 µg/mL in test [2] (setting [6]) and in test [2] (setting [7]) were 132% and 90.1%, respectively.
